Literature values in patent US7214684B2, “Methods for the treatment of allergic rhinitis” (Sepracor Inc., priority 1994, dated 2007).

Assays:
H-2 histamine receptor = H-2 histamine receptor (Homo sapiens, UniProt P25021); conditions: H-2 receptor-mediated response
[1] = system: melanoma and fibrosarcoma tumors; conditions: Brandes et al. 1994

H-2 histamine receptor, sequence (P25021 whole entry): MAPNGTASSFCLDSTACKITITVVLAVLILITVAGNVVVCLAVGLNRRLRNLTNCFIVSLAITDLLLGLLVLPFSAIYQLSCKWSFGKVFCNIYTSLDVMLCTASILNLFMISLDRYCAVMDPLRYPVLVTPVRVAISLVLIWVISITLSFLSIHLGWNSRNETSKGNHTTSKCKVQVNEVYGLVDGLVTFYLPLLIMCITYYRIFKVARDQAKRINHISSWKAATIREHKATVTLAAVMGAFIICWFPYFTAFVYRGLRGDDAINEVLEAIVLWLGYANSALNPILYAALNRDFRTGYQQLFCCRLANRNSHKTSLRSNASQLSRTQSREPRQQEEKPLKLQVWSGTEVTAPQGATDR

SMILES | effect on the chronotropic effect of histamine on atria (H-2 histamine receptor) | association with tumor growth [1]
CCOC(=O)N1CCC(=C2c3ccc(Cl)cc3CCc3cccnc32)CC1 [Loratadine] | nor does it alter | associated with growth of both melanoma and fibrosarcoma tumors
COc1ccc(CCN2CCC(Nc3nc4ccccc4n3Cc3ccc(F)cc3)CC2)cc1 [astemizole] |  | associated with growth of both melanoma and fibrosarcoma tumors
